Consider eight molecules from patent US8034941B2, “Imidazopyridazinone and imidazopyridone derivatives, the preparation thereof and their use as pharmaceutical compositions” (Boehringer Ingelheim International GmbH, priority 2003, dated 2011).

Usually IC50 stands for the concentration needed to halve the response being measured.

For one data set, the target named is T1, DPP-IV (Homo sapiens, UniProt P27487).
T1 construct: an extract of human colon carcinoma cell line Caco-2 is used as the DPP IV source; endogenous in cells; host or cells: Caco-2 (human colon carcinoma), differentiated to induce DPP-IV expression; Nonidet-P40 solubilised extract
T1 sequence (P27487 whole entry): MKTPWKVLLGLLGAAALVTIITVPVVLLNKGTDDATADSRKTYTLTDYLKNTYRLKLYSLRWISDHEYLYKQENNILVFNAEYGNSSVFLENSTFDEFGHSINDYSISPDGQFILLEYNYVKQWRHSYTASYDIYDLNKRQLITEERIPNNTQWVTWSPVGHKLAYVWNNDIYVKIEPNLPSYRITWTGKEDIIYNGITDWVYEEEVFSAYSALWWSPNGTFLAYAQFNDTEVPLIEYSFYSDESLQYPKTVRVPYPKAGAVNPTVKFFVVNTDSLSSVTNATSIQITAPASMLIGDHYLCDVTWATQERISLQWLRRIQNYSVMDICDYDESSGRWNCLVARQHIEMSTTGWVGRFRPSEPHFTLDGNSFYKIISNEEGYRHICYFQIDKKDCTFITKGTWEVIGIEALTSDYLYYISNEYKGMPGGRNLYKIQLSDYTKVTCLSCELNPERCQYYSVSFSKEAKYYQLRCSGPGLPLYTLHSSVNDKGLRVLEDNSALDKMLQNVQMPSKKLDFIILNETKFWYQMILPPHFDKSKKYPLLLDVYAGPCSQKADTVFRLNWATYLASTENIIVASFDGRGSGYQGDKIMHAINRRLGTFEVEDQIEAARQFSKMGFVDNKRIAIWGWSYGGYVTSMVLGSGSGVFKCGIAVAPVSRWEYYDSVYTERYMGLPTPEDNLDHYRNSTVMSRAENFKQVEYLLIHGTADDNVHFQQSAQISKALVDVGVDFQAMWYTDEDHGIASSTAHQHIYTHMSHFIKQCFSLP
The experiment in a line: DPP-IV assay with Caco-2 cell extract as DPP IV source, AFC substrate, fluorescence. The format is biochemical. As to conditions: extract of human colon carcinoma cell line Caco-2; substrate 100 μM; 60 minutes at ambient temperature; read-out: DPP IV inhibition IC50. How it is done:
The cell extract was obtained from cells solubilised in a buffer (10 mM Tris HCl, 0.15 M NaCl, 0.04 t.i.u. aprotinin, 0.5% Nonidet-P40, pH 8.0) by centrifuging at 35,000 g for 30 minutes at 4° C. (to remove cell debris).
The DPP-IV assay was carried out as follows:
50 μl substrate solution (AFC; AFC is amido-4-trifluoromethylcoumarin), final concentration 100 μM, were placed in black microtitre plates. 20 μl of assay buffer (final concentrations 50 mM Tris HCl pH 7.8, 50 mM NaCl, 1% DMSO) was pipetted in. The reaction was started by adding 30 μl of solubilised Caco-2 protein (final concentration 0.14 μg of protein per well). The test substances to be investigated were typically added prediluted in 20 μl, and the volume of assay buffer was then reduced accordingly. The reaction was carried out at ambient temperature, incubating for 60 minutes. […] Blank readings (corresponding to 0% activity) were obtained in mixtures without any Caco-2 protein (volume replaced by assay buffer), control values (corresponding to 100% activity) were obtained in mixtures with no substance added.

For a further data set, the system named is rats. The data set is described as follows: Tolerability after oral administration to rats (behaviour). As to conditions: 10 mg/kg. The format is in vivo.

For `CC#CCn1c(N2CCCC(N)C2)nc2cnn(Cc3nc4ccccc4c4ccccc34)c(=O)c21` (centres unmarked) [1(1), 2-(3-amino-piperidin-1-yl)-3-(2-butyn-1-yl)-5-[(phenanthridin-6-yl)methyl]-3,5-dihydro-imidazo[4,5-d]pyridazin-4-one], the concentration for half-maximal inhibition (IC50) on DPP-IV amounted to 17 nM.

For the molecule `CC#CCn1c(N2CCCC(N)C2)nc2cnn(Cc3cc4ccccc4c4ccccc34)c(=O)c21` (centres unmarked) [1(2), 2-(3-amino-piperidin-1-yl)-3-(2-butyn-1-yl)-5-[(phenanthren-9-yl)methyl]-3,5-dihydro-imidazo[4,5-d]pyridazin-4-one], on DPP-IV, the half-inhibitory concentration (IC50) worked out at 58 nM.

In the case of `CC#CCn1c(N2CCC[C@@H](N)C2)nc2c(C)nn(Cc3nc4ccccc4c4ccccc34)c(=O)c21` [1(3), 2-((R)-3-amino-piperidin-1-yl)-3-(2-butyn-1-yl)-5-[(phenanthridin-6-yl)methyl]-7-methyl-3,5-dihydro-imidazo[4,5-d]pyridazin-4-one x trifluoroacetic acid], the IC50 at DPP-IV was 8 nM.

Consider `CC#CCn1c(N2CCC[C@@H](N)C2)nc2c(C)nn(CC3=Nc4ccccc4Oc4ccccc43)c(=O)c21` [1(4), 2-((R)-3-amino-piperidin-1-yl)-3-(2-butyn-1-yl)-5-[(dibenzo[b,f][1,4]oxazepin-11-yl)methyl]-7-methyl-3,5-dihydro-imidazo[4,5-d]pyridazin-4-one], for which the half-inhibitory concentration (IC50) on DPP-IV came to 9 nM.

Consider `CC#CCn1c(N2CCC[C@@H](N)C2)nc2cnn(Cc3nc4ccc5ccccc5c4o3)c(=O)c21` [1(7), 2-((R)-3-amino-piperidin-1-yl)-3-(2-butyn-1-yl)-5-[(naphtho[2,1-d]oxazol-2-yl)methyl]-3,5-dihydro-imidazo[4,5-d]pyridazin-4-one], for which, on DPP-IV, the concentration for half-maximal inhibition (IC50) turned out to be 3 nM.

Regarding `CC#CCn1c(N2CCC[C@@H](N)C2)nc2cnn(Cc3nc4c(ccc5ccccc54)o3)c(=O)c21` [1(8), 2-((R)-3-amino-piperidin-1-yl)-3-(2-butyn-1-yl)-5-[(naphtho[1,2-d]oxazol-2-yl)methyl]-3,5-dihydro-imidazo[4,5-d]pyridazin-4-one], at DPP-IV, the IC50 came to 7 nM.

In the case of `CC#CCn1c(N2CCC[C@@H](N)C2)nc2cnn(Cc3nc4ccccc4c(=O)[nH]3)c(=O)c21` [1(9), 2-((R)-3-amino-piperidin-1-yl)-3-(2-butyn-1-yl)-5-[(4-oxo-3,4-dihydro-quinazolin-2-yl)methyl]-3,5-dihydro-imidazo[4,5-d]pyridazin-4-one], at DPP-IV, the half-maximal inhibitory concentration (IC50) amounted to 3 nM.

With `CC#CCn1c(N2CCCC(N)C2)nc2cnn(CC3=Nc4ccccc4Oc4ccccc43)c(=O)c21` (centres unmarked) [Example 1, 2-(3-amino-piperidin-1-yl)-3-(2-butyn-1-yl)-5-[(dibenzo[b,f][1,4]oxazepin-11-yl)methyl]-3,5-dihydro-imidazo[4,5-d]pyridazin-4-one], the “changes in the animals' behaviour” value in the data set with rats was “no changes in the animals' behaviour could be detected”.
